The structures appear in SMILES notation. Where a name gives a salt, the structure may show the parent alone.

One assay relates to MOLM-13 cells. Nature of the assay: In vitro cell proliferation assay, MOLM-13 (CellTiter-Glo). The conditions noted are these: human acute leukemia cells bearing FLT3-ITD mutation, 72 h. The format is cell-based. On the procedure: (§1) The human acute leukemia MOLM-13 AND MV-4-11 cells, bearing a FLT3-ITD mutation, were seeded (5000 cells/well) in white 384 well-plates in complete medium (RPMI 1640 plus 10% Fetal bovine serum) and treated with compounds dissolved in 0.1% DMSO, 24 h after seeding. The cells were incubated at 37° C. and 5% CO2 and after 72 h the plates were processed using CellTiter-Glo assay (Promega) following the manufacturer's instruction.
(§2) CellTiter-Glo is a homogenous method based on the quantification of the ATP present, an indicator of metabolitically active cells. ATP was quantified using a system based on luciferase and D-luciferin resultant into light generation. The luminescent signal was proportional to the number of cells present in culture. Briefly, 25 microL/well reagent solution were added to each well and, after 5 minutes shaking, microplates were read by Envision (PerkinElmer) luminometer. Inhibitory activity was evaluated comparing treated versus control data using Symyx Assay Explorer (Symyx Technologies Inc.) program. IC50 was calculated using sigmoidal interpolation curve.

In another assay the test system is MV-4-11 cells. Nature of the assay: In vitro cell proliferation assay, MV-4-11 (CellTiter-Glo). The conditions noted are these: MV4-11; human acute leukemia cells bearing FLT3-ITD mutation, 72 h. The format is cell-based. The procedure: as §1, §2

On to `CN1CCN(c2ccc(C(=O)Nc3n[nH]c4cc(OCc5cccc(Oc6ccccc6)c5)ccc34)cc2)CC1` [Cpd. 5, 4-(4-Methyl-piperazin-1-yl)-N-[6-(3-phenoxy-benzyloxy)-1H-indazol-3-yl]-benzamide], for which the half-inhibitory concentration (IC50) in the assay on MOLM-13 cells stood at 0.557 µM; in the assay with MV-4-11 cells, 0.513 µM.
For `CN1CCN(c2ccc(C(=O)Nc3n[nH]c4cc(OCCOCc5ccccc5)ccc34)c(F)c2)CC1` [Cpd. 38, N-[6-(2-Benzyloxy-ethoxy)-1H-indazol-3-yl]-2-fluoro-4-(4-methyl-piperazin-1-yl)-benzamide] the same measures were under 0.05 µM and under 0.05 µM.
Take `CN1CCC(CNc2ccc(C(=O)Nc3n[nH]c4cc(OCCOCc5ccccc5)ccc34)cc2)CC1` [Cpd. 27, N-[6-(2-Benzyloxy-ethoxy)-1H-indazol-3-yl]-4-[(1-methyl-piperidin-4-ylmethyl)-amino]-benzamide]: the half-inhibitory concentration (IC50) in the assay on MOLM-13 cells and in the assay on MV-4-11 cells was under 0.05 µM in each case.
As for `CN(C)CCN(C)c1ccc(C(=O)Nc2n[nH]c3cc(OCCOCc4ccccc4)ccc23)cc1` [Cpd. 16, N-[6-(2-Benzyloxy-ethoxy)-1H-indazol-3-yl]-4-[(2-dimethylamino-ethyl)-methyl-amino]-benzamide], the 50% inhibitory concentration (IC50) with MOLM-13 cells and with MV-4-11 cells was under 0.05 µM throughout.
On to `CN1CCC(Nc2ccc(C(=O)Nc3n[nH]c4cc(OCCOCc5ccccc5)ccc34)cc2)CC1` [Cpd. 19, N-[6-(2-Benzyloxy-ethoxy)-1H-indazol-3-yl]-4-(1-methyl-piperidin-4-ylamino)-benzamide], for which the IC50 in the assay with MOLM-13 cells and in the assay with MV-4-11 cells was under 0.05 µM in each case.
For `COc1ccc(COCCOc2ccc3c(NC(=O)c4ccc(N5CCN(C)CC5)cc4)n[nH]c3c2)cc1` [Cpd. 40, N-{6-[2-(4-Methoxy-benzyloxy)-ethoxy]-1H-indazol-3-yl}-4-(4-methyl-piperazin-1-yl)-benzamide], the IC50 in the assay with MOLM-13 cells and with MV-4-11 cells was under 0.05 µM each time.
Take `CN(C)CCCN(C)c1ccc(C(=O)Nc2n[nH]c3cc(OCCOCc4ccccc4)ccc23)cc1` [Cpd. 17, N-[6-(2-Benzyloxy-ethoxy)-1H-indazol-3-yl]-4-[(3-dimethylamino-propyl)-methyl-amino]-benzamide]: the figures for the IC50 with MOLM-13 cells and in the assay with MV-4-11 cells were 0.087 µM and under 0.05 µM, respectively.
Take `CN1CCN(c2ccc(C(=O)Nc3n[nH]c4cc(OCCOCc5ccccc5)ccc34)cc2)CC1` [Cpd. 11, N-[6-(2-Benzyloxy-ethoxy)-1H-indazol-3-yl]-4-(4-methyl-piperazin-1-yl)-benzamide]: the IC50 in the assay with MOLM-13 cells and with MV-4-11 cells was under 0.05 µM each time.
Turning to `CN1CCN(c2ccc(C(=O)Nc3n[nH]c4cc(Oc5ccc(OCc6ccccc6)cc5)ccc34)cc2)CC1` [Cpd. 4, N-[6-(4-Benzyloxy-phenoxy)-1H-indazol-3-yl]-4-(4-methyl-piperazin-1-yl)-benzamide], the half-maximal inhibitory concentration (IC50) in the assay with MOLM-13 cells is 0.092 µM; in the assay with MV-4-11 cells it was under 0.05 µM.
The like results for `O=C(Nc1n[nH]c2cc(OCCOCc3ccccc3)ccc12)c1ccc(N2CC(N3CCCC3)C2)cc1` [Cpd. 28, N-[6-(2-Benzyloxy-ethoxy)-1H-indazol-3-yl]-4-(3-pyrrolidin-1-yl-azetidin-1-yl)-benzamide] were, in that order, under 0.05 µM and under 0.05 µM.
In the case of `C[N+]1([O-])CCN(c2ccc(C(=O)Nc3n[nH]c4cc(OCCOCc5ccccc5)ccc34)cc2)CC1` [Cpd. 14, N-[6-(2-Benzyloxy-ethoxy)-1H-indazol-3-yl]-4-(4-methyl-4-oxy-piperazin-1-yl)-benzamide], the half-maximal inhibitory concentration (IC50) in the assay with MOLM-13 cells and in the assay with MV-4-11 cells was under 0.05 µM in each case.
Consider `CN1CCN(c2ccc(C(=O)Nc3n[nH]c4cc(OC/C=C/c5ccccc5)ccc34)cc2)CC1` [Cpd. 39, 4-(4-Methyl-piperazin-1-yl)-N-[6-((E)-3-phenyl-allyloxy)-1H-indazol-3-yl]-benzamide], for which the figures for the concentration for half-maximal inhibition (IC50) with MOLM-13 cells and in the assay on MV-4-11 cells were 0.081 µM and 0.05 µM, respectively.
In the case of `CN1CCN(c2ccc(C(=O)Nc3n[nH]c4cc(OCCOc5ccccc5)ccc34)cc2)CC1` [Cpd. 10, 4-(4-Methyl-piperazin-1-yl)-N-[6-(2-phenoxy-ethoxy)-1H-indazol-3-yl]-benzamide], the IC50 worked out at 0.139 µM in the assay with MOLM-13 cells and 0.118 µM in the assay on MV-4-11 cells.
As to `CN1CCN(c2ccc(C(=O)Nc3n[nH]c4cc(OCCOCc5ccccc5)ccc34)c(N3CCN(C)CC3)c2)CC1` [Cpd. 43, N-[6-(2-Benzyloxy-ethoxy)-1H-indazol-3-yl]-2,4-bis-(4-methyl-piperazin-1-yl)-benzamide], the figures for the IC50 in the assay on MOLM-13 cells and with MV-4-11 cells were 0.24 µM and 0.118 µM, respectively.
The like results for `CN1CCN(c2ccc(C(=O)Nc3n[nH]c4cc(Oc5cccc(OCc6ccccc6)c5)ccc34)cc2)CC1` [Cpd. 9, N-[6-(3-Benzyloxy-phenoxy)-1H-indazol-3-yl]-4-(4-methyl-piperazin-1-yl)-benzamide] were, in that order, 0.245 µM and 0.101 µM.
For `CN1CCN(c2ccc(C(=O)Nc3n[nH]c4cc(Oc5cccc(F)c5)ccc34)cc2)CC1` [Cpd. 3, N-[6-(3-Fluoro-phenoxy)-1H-indazol-3-yl]-4-(4-methyl-piperazin-1-yl)-benzamide] the same measures were 0.99 µM and 0.987 µM.
As for `O=C(Nc1n[nH]c2cc(OCCOCc3ccccc3)ccc12)c1ccc(NCCN2CCOCC2)cc1` [Cpd. 25, N-[6-(2-Benzyloxy-ethoxy)-1H-indazol-3-yl]-4-(2-morpholin-4-yl-ethylamino)-benzamide hydrochloride], the IC50 in the assay with MOLM-13 cells and with MV-4-11 cells was under 0.05 µM each time.
On to `CN1CCN(c2cccc(C(=O)Nc3n[nH]c4cc(OCCOCc5ccccc5)ccc34)c2)CC1` [Cpd. 29, N-[6-(2-Benzyloxy-ethoxy)-1H-indazol-3-yl]-3-(4-methyl-piperazin-1-yl)-benzamide hydrochloride], for which the half-maximal inhibitory concentration (IC50) with MOLM-13 cells and with MV-4-11 cells was under 0.05 µM throughout.
For the molecule `CN1CCN(c2ccc(C(=O)Nc3n[nH]c4cc(OCc5ccccc5)ccc34)cc2)CC1` [Cpd. 1, N-(6-Benzyloxy-1H-indazol-3-yl)-4-(4-methyl-piperazin-1-yl)-benzamide], the IC50 was found to be 0.789 µM with MOLM-13 cells and 0.683 µM in the assay with MV-4-11 cells.
`CN(C)C1CCN(c2ccc(C(=O)Nc3n[nH]c4cc(OCCOCc5ccccc5)ccc34)cc2)CC1` [Cpd. 15, N-[6-(2-Benzyloxy-ethoxy)-1H-indazol-3-yl]-4-(4-dimethylamino-piperidin-1-yl)-benzamide]: the IC50 with MOLM-13 cells and with MV-4-11 cells was under 0.05 µM in each case.
Consider `CN1CCC(Oc2ccc(C(=O)Nc3n[nH]c4cc(OCCOCc5ccccc5)ccc34)cc2)CC1` [Cpd. 22, N-[6-(2-Benzyloxy-ethoxy)-1H-indazol-3-yl]-4-(1-methyl-piperidin-4-yloxy)-benzamide], for which the IC50 with MOLM-13 cells was 0.065 µM; with MV-4-11 cells, under 0.05 µM.
As for `CN1CCN(c2ccc(C(=O)Nc3n[nH]c4cc(OCCOCc5cccc(C(F)(F)F)c5)ccc34)cc2)CC1` [Cpd. 34, 4-(4-Methyl-piperazin-1-yl)-N-{6-[2-(3-trifluoromethyl-benzyloxy)-ethoxy]-1H-indazol-3-yl}-benzamide], the concentration for half-maximal inhibition (IC50) with MOLM-13 cells and in the assay with MV-4-11 cells was under 0.05 µM in each case.
With `CN1CCN(c2ccc(C(=O)Nc3n[nH]c4cc(Oc5ccccc5)ccc34)cc2)CC1` [Cpd. 2, 4-(4-Methyl-piperazin-1-yl)-N-(6-phenoxy-1H-indazol-3-yl)-benzamide], the IC50 came out at 1.16 µM with MOLM-13 cells and 1.48 µM in the assay with MV-4-11 cells.
For `CN1CCN(c2ccc(C(=O)Nc3n[nH]c4cc(OC5CCN(Cc6ccccc6)CC5)ccc34)cc2)CC1` [Cpd. 6, N-[6-(1-Benzyl-piperidin-4-yloxy)-1H-indazol-3-yl]-4-(4-methyl-piperazin-1-yl)-benzamide], the 50% inhibitory concentration (IC50) with MOLM-13 cells was found to be 0.673 µM; in the assay with MV-4-11 cells it was 0.163 µM.
The like results for `CN1CCN(c2ccc(C(=O)Nc3n[nH]c4cc(Oc5ccc(Oc6ccccc6)cc5)ccc34)cc2)CC1` [Cpd. 8, 4-(4-Methyl-piperazin-1-yl)-N-[6-(4-phenoxy-phenoxy)-1H-indazol-3-yl]-benzamide] were, in that order, 1.98 µM and 2.75 µM.
With `CN(C)Cc1ccc(C(=O)Nc2n[nH]c3cc(OCCOCc4ccccc4)ccc23)cc1` [Cpd. 21, N-[6-(2-Benzyloxy-ethoxy)-1H-indazol-3-yl]-4-dimethylaminomethyl-benzamide], the midpoint of inhibition in the assay with MOLM-13 cells, the IC50, lay at 0.068 µM.
As for `CN1CCN(c2ccc(C(=O)Nc3n[nH]c4cc(OCC#Cc5ccccc5)ccc34)cc2)CC1` [Cpd. 7, 4-(4-Methyl-piperazin-1-yl)-N-[6-(3-phenyl-prop-2-ynyloxy)-1H-indazol-3-yl]-benzamide], the IC50 was 0.24 µM in the assay with MOLM-13 cells and 0.11 µM in the assay on MV-4-11 cells.

Values taken from patent US10028934B2, “Substituted indazole derivatives active as kinase inhibitiors” (NERVIANO MEDICAL SCIENCES S.R.L., priority 2011, dated 2018).
